Test results reported in patent US20090118255A1, “Crp Lowering Agent” (TAKEDA PHARMACEUTICAL COMPANY LIMITED, priority 2004, published 2009).

Experiments:
plasma CRP = experiment: Plasma CRP lowering effect, WHHL rat, 28 days oral with mixed food; assay type: in vivo; settings: male WHHL rat, mean ± SE, N = 11
Method: To 2 month-old male WHHL […] (11 per group) was orally administered with a mixed food a vehicle or Test compound 1 at a dose of 100 and 200 mg/kg for 28 days. Before administration and after 28 days administration, plasma CRP level was determined using CRPα Test Wako (Wako Pure Chemical Industries, Ltd.) with Hitachi, Ltd. Autoanalyzer 7070 (Table 1).

CRP = settings: literature reports (Ballantyne 2003; Sager 2003); cited from earlier work

| SMILES | Plasma CRP level, after 28 days administration (plasma CRP; 100 mg/kg orally with mixed food for 28 days) [mg/dL] | Plasma CRP level, after 28 days administration (plasma CRP; 200 mg/kg orally with mixed food for 28 days, *P < 0.025 vs. control) | Plasma CRP level, value of before administration (plasma CRP; baseline of the 100 mg/kg group) [mg/dL] | Plasma CRP level, value of before administration (plasma CRP; baseline of the 200 mg/kg group) [mg/dL] | CRP lowering activity (CRP) |
| --- | --- | --- | --- | --- | --- |
| COc1cccc([C@H]2O[C@H](CC(=O)N3CCC(CC(=O)O)CC3)C(=O)N(CC(C)(C)COC(C)=O)c3ccc(Cl)cc32)c1OC [Test compound 1, N-[[(3R,5S)-1-(3-acetoxy-2,2-dimethylpropyl)-7-chloro-5-(2,3-dimethoxyphenyl)-2-oxo-1,2,3,5-tetrahydro-4,1-benzoxazepin-3-yl]acetyl]piperidine-4-acetic acid] | 3.2 ± 0.6 | 2.1 ± 0.2* mg/dL | 4.4 ± 0.4 | 4.4 ± 0.6 | – |
| O=C1[C@H](CC[C@H](O)c2ccc(F)cc2)[C@@H](c2ccc(O)cc2)N1c1ccc(F)cc1 [ezetimibe] | – | – | – | – | no CRP lowering activity |
